pIC50: −log10 of the molar value.
Experiments:
ER-α in MCF-7 cells = molecular target: T1, ER-α in MCF-7 cells (Homo sapiens, UniProt P03372); assay: Breast cancer cell ER-α in cell western assay (SP1); format: cell-based; set-up: endogenous in cells; host or cells: MCF-7; conditions: 4 or 24 hr post compound addition; for Emax: MCF7, SP1 antibody, read-out: ER-α In Cell Western Assay (SP1) Max Response; for DC50: SP1 antibody, read-out: ER-α In Cell Western Assay (SP1) IC50
T1 sequence (P03372 1-595): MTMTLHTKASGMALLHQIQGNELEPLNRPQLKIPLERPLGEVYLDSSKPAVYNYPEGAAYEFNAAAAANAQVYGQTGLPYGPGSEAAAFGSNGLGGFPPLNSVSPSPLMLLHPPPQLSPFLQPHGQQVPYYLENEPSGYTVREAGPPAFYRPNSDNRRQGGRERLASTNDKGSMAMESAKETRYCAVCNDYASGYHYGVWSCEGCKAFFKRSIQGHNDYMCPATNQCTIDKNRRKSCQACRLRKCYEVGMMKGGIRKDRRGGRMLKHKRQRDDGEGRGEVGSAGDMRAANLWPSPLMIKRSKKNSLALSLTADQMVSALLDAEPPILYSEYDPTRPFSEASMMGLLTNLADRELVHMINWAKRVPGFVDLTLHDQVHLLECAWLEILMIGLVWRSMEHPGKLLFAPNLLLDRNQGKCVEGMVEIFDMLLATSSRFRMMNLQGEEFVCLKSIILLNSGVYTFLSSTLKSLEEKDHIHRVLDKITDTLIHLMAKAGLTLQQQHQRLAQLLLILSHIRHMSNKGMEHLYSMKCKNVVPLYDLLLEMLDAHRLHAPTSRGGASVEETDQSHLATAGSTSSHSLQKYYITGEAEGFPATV
Method in brief: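 MCF-7, charcoal-stripped FBS/RPMI, 3200 cells/well, adhered overnight. Formalin fix, SP1 Ab o/n 4 °C, IRDye 800CW + DRAQ5; % ER = 800/700 ratio vs untreated.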

MCF-7 cells = assay: Breast cancer cell viability assay (CellTiter-Glo, 5 days); format: cell-based; conditions: 5 days' compound exposure; for pIC50: Homo sapiens, MCF7, 120 h
Method in brief: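 MCF-7 cells, 320 per well in RPMI with 10% FBS and 20 mM HEPES, adhered overnight, then exposed 5 days to an eleven-point semilog dilution (final 0.3-0.000003 μM). CellTiter-Glo luminescence read; % viability = (sample − cell-free background)/(untreated − background) × 100.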

Compound | Emax (ER-α in MCF-7 cells) [%] | DC50 (ER-α in MCF-7 cells) [µM] | MCF7 Viability Assay Max Response (MCF-7 cells) | pIC50 (MCF-7 cells)
CC/C(=C(/c1ccc(/C=C/C(=O)O)cc1)c1coc2ccccc12)c1ccc(F)cc1Cl [Compound 170, (E)-3-(4-((E)-1-(Benzofuran-3-yl)-2-(2-chloro-4-fluorophenyl)but-1-en-1-yl)phenyl)acrylic acid] | ≥ 40 | ≤ 0.1 | ++ (++ = a single % value ≧ 40%) | ≥ 7.00
CCOC(=O)/C=C/c1ccc(/C(=C(/CC)c2ccccc2)c2ccc3cn[nH]c3c2)cc1 [Compound 172, (E)-Ethyl 3-(4-((E)-1-(1H-indazol-6-yl)-2-phenylbut-1-en-1-yl)phenyl)acrylate] | ≥ 40 | > 0.1 | + (+ = a single % value < 40%) | ≥ 7.00
CCOC(=O)/C=C/c1ccc(/C(=C(/CC)c2ccccc2)c2cccc3[nH]ncc23)cc1 [Compound 175, (E)-Ethyl 3-(4-((E)-1-(1H-Indazol-4-yl)-2-phenylbut-1-en-1-yl)phenyl)acrylate] | ≥ 40 | ≤ 0.1 | + (+ = a single % value < 40%) | ≥ 7.00
CC/C(=C(/c1ccc2cc(/C=C/C(=O)O)ccc2c1)c1ccc2[nH]ncc2c1)c1ccccc1 [Compound 180, (E)-3-(6-((E)-1-(1H-Indazol-5-yl)-2-phenylbut-1-en-1-yl)naphthalen-2-yl)acrylic acid] | ≥ 40 | ≤ 0.1 | ++ (++ = a single % value ≧ 40%) | ≥ 7.00
CC/C(=C(/c1csc(/C=C/C(=O)O)c1)c1ccc2[nH]ncc2c1)c1ccccc1 [Compound 186, (E)-3-(4-((Z)-1-(1H-Indazol-5-yl)-2-phenylbut-1-en-1-yl)thiophen-2-yl)acrylic acid] | ≥ 40 | – | + (+ = a single % value < 40%) | < 7.00
CC/C(=C(/c1ccc(/C=C/C(=O)O)nc1)c1ccc2[nH]ncc2c1)c1ccccc1 [Compound 189, (E)-3-(5-((Z)-1-(1H-Indazol-5-yl)-2-phenylbut-1-en-1-yl)pyridin-2-yl)acrylic acid] | ≥ 40 | – | ++ (++ = a single % value ≧ 40%) | < 7.00
CC/C(=C(/c1ccc(OCC(=O)O)cc1)c1ccc2[nH]ncc2c1)c1ccccc1 [Compound 190, (E)-2-(4-(1-(1H-Indazol-5-yl)-2-phenylbut-1-en-1-yl)phenoxy)acetic acid] | ≥ 40 | > 0.1 | ++ (++ = a single % value ≧ 40%) | < 7.00
CC/C(=C(/c1ccc(OCCN2CCCC2)cc1)c1ccc2[nH]ncc2c1)c1ccccc1 [Compound 191, (E)-5-(2-Phenyl-1-(4-(2-(pyrrolidin-1-yl)ethoxy)phenyl)but-1-en-1-yl)-1H-indazole] | ≥ 40 | ≤ 0.1 | ++ (++ = a single % value ≧ 40%) | ≥ 7.00
CC/C(=C(/c1ccc2c(c1)CC(C(=O)O)C2)c1ccc2[nH]ncc2c1)c1ccccc1 (centres unmarked) [Compound 192, (E)-5-(1-(1H-Indazol-5-yl)-2-phenylbut-1-en-1-yl)-2,3-dihydro-1H-indene-2-carboxylic acid] | ≥ 40 | > 0.1 | ++ (++ = a single % value ≧ 40%) | < 7.00
CCOC(=O)/C=C/c1ccc(/C(=C(/CC)c2ccc(F)cc2Cl)c2ccc3c(cnn3C3CCCCO3)c2)cc1 (centres unmarked) [Compound 193, (E)-Ethyl 3-(4-((E)-2-(2-chloro-4-fluorophenyl)-1-(1-(tetrahydro-2H-pyran-2-yl)-1H-indazol-5-yl)but-1-en-1-yl)phenyl)acrylate] | ≥ 40 | > 0.1 | + (+ = a single % value < 40%) | ≥ 7.00
CC/C(=C(/c1ccc(/C=C/C(=O)O)cc1)c1ccc2[nH]ncc2c1)c1ccncc1Cl [Compound 204, (E)-3-(4-((E)-2-(3-Chloropyridin-4-yl)-1-(1H-indazol-5-yl)but-1-en-1-yl)phenyl)acrylic acid] | ≥ 40 | – | ++ (++ = a single % value ≧ 40%) | ≥ 7.00
CC/C(=C(/c1ccc(/C=C/C(=O)O)cc1)c1ccc2[nH]ncc2c1)c1cnccc1C(F)(F)F [Compound 207, (E)-3-(4-((E)-1-(1H-Indazol-5-yl)-2-(4-(trifluoromethyl)pyridin-3-yl)but-1-en-1-yl)phenyl)acrylic acid] | ≥ 40 | ≤ 0.1 | ++ (++ = a single % value ≧ 40%) | ≥ 7.00
CC/C(=C(/c1ccc(/C=C/C(=O)O)cc1)c1ccc2[nH]ncc2c1)c1ccnn1C [Compound 208, (E)-3-(4-((E)-1-(1H-Indazol-5-yl)-2-(1-methyl-1H-pyrazol-5-yl)but-1-en-1-yl)phenyl)acrylic acid] | ≥ 40 | > 0.1 | + (+ = a single % value < 40%) | < 7.00
CC/C(=C(/c1ccc(/C=C/C(=O)O)cc1)c1ccc2[nH]ncc2c1)c1ccc(C(=O)N(C)C)cc1F [Compound 212, (E)-3-(4-((E)-2-(4-(Dimethylcarbamoyl)-2-fluorophenyl)-1-(1H-indazol-5-yl)but-1-en-1-yl)phenyl)acrylic acid] | ≥ 40 | > 0.1 | ++ (++ = a single % value ≧ 40%) | < 7.00
CC/C(=C(/c1ccc(/C=C/C(=O)O)cc1)c1ccc2[nH]ncc2c1)c1ccc(C(=O)NC)cc1F [Compound 213, (E)-3-(4-((E)-2-(2-Fluoro-4-(methylcarbamoyl)phenyl)-1-(1H-indazol-5-yl)but-1-en-1-yl)phenyl)acrylic acid] | ≥ 40 | > 0.1 | + (+ = a single % value < 40%) | < 7.00
CC/C(=C(/c1ccc(/C=C/C(=O)O)cc1)c1ccc2[nH]ncc2c1)c1ccsc1C [Compound 214, (E)-3-(4-((E)-1-(1H-Indazol-5-yl)-2-(2-methylthiophen-3-yl)but-1-en-1-yl)phenyl)acrylic acid] | ≥ 40 | ≤ 0.1 | ++ (++ = a single % value ≧ 40%) | ≥ 7.00
CC/C(=C(/c1ccc(/C=C/C(=O)O)cc1)c1ccc2[nH]ncc2c1)c1cccnc1C [Compound 217, (E)-3-(4-((E)-1-(1H-Indazol-5-yl)-2-(2-methylpyridin-3-yl)but-1-en-1-yl)phenyl)acrylic acid] | ≥ 40 | – | ++ (++ = a single % value ≧ 40%) | < 7.00
CC/C(=C(/c1ccc(/C=C/C(=O)O)cc1)c1ccc2[nH]ncc2c1)c1cnccc1C [Compound 218, (E)-3-(4-((E)-1-(1H-Indazol-5-yl)-2-(4-methylpyridin-3-yl)but-1-en-1-yl)phenyl)acrylic acid] | ≥ 40 | – | ++ (++ = a single % value ≧ 40%) | < 7.00
CC/C(=C(/c1ccc(/C=C/C(=O)O)cc1)c1ccc2[nH]ncc2c1)c1cnccn1 [Compound 219, (E)-3-(4-((E)-1-(1H-Indazol-5-yl)-2-(pyrazin-2-yl)but-1-en-1-yl)phenyl)acrylic acid] | ≥ 40 | > 0.1 | ++ (++ = a single % value ≧ 40%) | < 7.00
CC/C(=C(/c1ccc(/C=C/C(=O)O)cc1)c1ccc2[nH]ncc2c1)c1cncnc1 [Compound 220, (E)-3-(4-((E)-1-(1H-Indazol-5-yl)-2-(pyrimidin-5-yl)but-1-en-1-yl)phenyl)acrylic acid] | < 40 | > 0.1 | + (+ = a single % value < 40%) | < 7.00
CC/C(=C(/c1ccc(/C=C/C(=O)O)cc1)c1ccc2[nH]ncc2c1)c1cnnn1C [Compound 221, (E)-3-(4-((E)-1-(1H-Indazol-5-yl)-2-(1-methyl-1H-1,2,3-triazol-5-yl)but-1-en-1-yl)phenyl)acrylic acid] | < 40 | > 0.1 | + (+ = a single % value < 40%) | < 7.00
CC/C(=C(/c1ccc(/C=C/C(=O)O)cc1)c1ccc2[nH]ncc2c1)c1cccnc1C(F)(F)F [Compound 222, (E)-3-(4-((E)-1-(1H-Indazol-5-yl)-2-(2-(trifluoromethyl)pyridin-3-yl)but-1-en-1-yl)phenyl)acrylic acid] | ≥ 40 | ≤ 0.1 | ++ (++ = a single % value ≧ 40%) | ≥ 7.00

From patent US9399646B2 (Genentech, Inc., priority 2010, dated 2016)
